Test results reported in BindingDB's records for doi:10.1016/j.jmb.2008.04.054 (Gilead Sciences, 2008).
pIC50: −log10 of the molar value.

Target: T1, Gag-Pol polyprotein [1148-1435] (Human immunodeficiency virus 1, UniProt P04585)
T1 construct: 1148-1435
Assay: Integrase 3-End Joining Assay
Settings: pH 7.3; 22 °C
Procedure: In the 3-end joining assay, the biotinylated donor DNA was bound to streptavidin-coated plates, and integrase was added to each well to allow processing of the donor DNA. Serially diluted compounds and DIG-tagged target DNA were then added to each well, and 3-end joining reaction was allowed to proceed for 30 min. Signal was detected using horseradishperoxidase-conjugated anti-Digoxin antibody through chemiluminescence measurement.

Question: `COc1c2c(cc3ncccc13)C(=O)N(Cc1ccc(F)cc1)C2` [7-[(4-fluorophenyl)methyl]-5-methoxy-6H,7H,8H-pyrrolo[3,4-g]quinolin-8-one] was tested. Which pIC50 did it give?
Answer: 4.62

Question: How did the pIC50 turn out when `O=C(NCc1ccc(F)cc1)c1nc(N2CCCCS2(=O)=O)c2cccnc2c1O` [5-(1,1-dioxo-1,2-thiazinan-2-yl)-N-[(4-fluorophenyl)methyl]-8-hydroxy-1,6-naphthyridine-7-carboxamide] was run?
Answer: 7.36

Question: With `CC[C@H](CO)n1cc(C(=O)O)c(=O)c2cc(Cc3cccc(Cl)c3F)ccc21` [6-[(3-chloro-2-fluorophenyl)methyl]-1-[(2R)-1-hydroxybutan-2-yl]-4-oxo-1,4-dihydroquinoline-3-carboxylic acid] as the compound, how does the pIC50 read?
Answer: 7.38

Question: `COc1c2c(c(OC)c3ncccc13)C(=O)N(Cc1ccc(F)cc1)C2` [7-[(4-fluorophenyl)methyl]-5,9-dimethoxy-6H,7H,8H-pyrrolo[3,4-g]quinolin-8-one] was tested. Which pIC50 did it give?
Answer: < 3.00

Question: How did the pIC50 turn out when `COc1c2c(c(O)c3ncccc13)C(=O)N(Cc1ccc(F)cc1)C2` was run?
Answer: 7.22

Question: With `O=C(O)C(=O)CC(=O)c1cccc(Cc2ccccc2)c1` [(2Z)-4-(3-benzylphenyl)-2-hydroxy-4-oxobut-2-enoic acid] as the compound, how does the pIC50 read?
Answer: 7.59
